pEC50: −log10 of the molar value. Bounds are passed on as bounds.

One may read the pEC50 as the EC50 on a negative log10 scale, so that one unit is a factor of ten. Read a low pEC50 as a large EC50.

For experiment [1], the system named is HCV genotype 1a replicon cell line. Briefly: HCV Genotype 1a Replicon Assay. Type of experiment: cell-based. The note with it: Hepatitis C virus, Huh7.5 cell background, NS3-specific protease activity in lysates, 48 or 72 hours, read-out: pEC50 Genotype 1a (converted). On the procedure: Assay 2: HCV Genotype 1a Replicon Assay
The HCV genotype 1a replicon cell line was obtained from Apath LLC (APC89; Huh7.5 cell background). This subgenomic replicon contains the N-terminus of the HCV core protein fused to the neomycin-resistance selectable marker. The EMCV IRES lies downstream and drives expression of the non-structural proteins NS3-NS5B. Compound potencies were determined using the NS3-specific protease activity in lysates as a measurement of compound inhibition of replicon levels.
(§1) Cells were grown at 37° C. in a 5% CO2 humidified incubator in DMEM (Invitrogen) with 10% FBS (HyClone), 1×NEAA (Invitrogen), 1× Pen-Strep (Invitrogen), and 850 μg/mL G418 (Invitrogen). On day 1 of the assay, cells were plated at 15,000 cells/well in black 96-well tissue culture plates (Costar) in 200 μL media lacking G418. […] Compounds were initially diluted in DMSO and then diluted another 200× in media to bring the final DMSO concentration down to 0.5%. The cells were incubated with test compounds for 48 or 72 hours. At the end of the incubation period, media and compound were removed from the plates.
To determine the NS3-specific protease activity in lysates, the cells were lysed at room temperature in 50 μL/well of 50 mM Hepes pH 7.5, 150 mM NaCl, 15% Glycerol, 0.15% Triton X-100, 10 mM DTT for 20 minutes with shaking. 50 μL of an NS3/4a protease-specific FRET substrate (Anaspec RET S1 Cat#22991) was then added to the wells at a final concentration of 15 μM. The plates were incubated at 37° C. for 20 minutes, which corresponds to a timepoint at which the protease activity is still in the linear phase. Protease activity was determined by measuring fluorescence (Excitation: 340 nm; Emission: 509 nm).
To analyze the data, the fluorescence was plotted vs. the compound concentration, and EC50 values were determined from a 4-parameter robust fit model using GraphPad Prism software.
For orientation: Replicon systems follow genome replication, usually without infectious particles.

Experiment [2] has as its system HCV genotype 1b replicon cell line. Kind of experiment: HCV Genotype 1b Replicon Assay. Type of experiment: cell-based. The note with it: Hepatitis C virus, Huh-7, Huh7 cell background, luciferase activity readout, 48 hours.
Excerpt: Assay 1: HCV Genotype 1b Replicon Assay
The HCV genotype 1b replicon cell line was obtained from Apath LLC (Brooklyn, N.Y.) (APC144; Huh7 cell background). This subgenomic replicon contains the N-terminus of the HCV core protein fused to the neomycin-resistance selectable marker. The EMCV IRES lies downstream and drives expression of humanized Renilla luciferase fused to the non-structural proteins NS3-NS5B. This cell line was used to determine compound potency using the luciferase activity readout as a measurement of compound inhibition of replicon levels.
as §1, with “500” for “850”, “10,000” for “15,000”, “white” for “black”, “48” for “48 or 72”, “plates and the luciferase activity was determined using Promega Renilla-Glo reagents.” for “plates.”
To analyze the data, the luciferase activity was plotted vs. the compound concentration, and EC50 values were determined from a 4-parameter robust fit model with the GraphPad Prism software package (GraphPad Software, Inc., San Diego, Calif.). Results are expressed as the negative decadic logarithm of the EC50 value, pEC50.

As for `COC(=O)N[C@H](C(=O)N1C[C@@H](C)C[C@H]1c1nc2c(ccc3cc(-c4cc(Cl)c(NC(=O)c5ccc(N6CCN(C(=O)C(C)(C)CO)C[C@H]6C)nc5)cc4OC(F)(F)F)ccc32)[nH]1)C1CCOCC1` [Example 15, [(S)-2-((2S,4S)-2-{7-[4-({6-[(R)-4-(3-Hydroxy-2,2-dimethyl-propionyl)-2-methyl-piperazin-1-yl]-pyridine-3-carbonyl}-amino)-5-chloro-2-trifluoromethoxy-phenyl]-3H-naphtho[1,2-d]imidazol-2-yl}-4-methyl-pyrrolidin-1-yl)-2-oxo-1-(tetrahydropyran-4-yl)-ethyl]-carbamic acid methyl ester], in experiment [1], the EC50 was < 0.1 nM. Further, the pEC50 in experiment [2] is > 10.00.

The values are drawn from patent publication US9365549B2, “Hepatitis C virus inhibitors” (THERAVANCE BIOPHARMA R&D IP, LLC, priority 2012, dated 2016).
